From patent US20090118286A1, “Heterobicyclic Acrylamides” (Bayer Cropscience AG, priority 2005, published 2009)

Experiment: log P determination by HPLC (EEC Directive 79/831 Annex V.A8, gradient method)
Format: physicochemical

Going from O=C(/C=C/c1c(-c2ccccc2Cl)nc2sc(C(F)(F)F)nn12)NC1CCCCC1 [Example 0155] to CCC(NC(=O)C=Cc1c(-c2ccccc2Cl)nc2sc(C(F)(F)F)nn12)C1CCCCC1 (stereo not shown) [Example 0196], the “Physical data (logP)” value rises from 3.9 to 4.82.

First: CCC(NC(=O)C=Cc1c(-c2ccccc2Cl)nc2sc(C(F)(F)F)nn12)c1ccccc1 (stereo not shown) [Example 0190]
Second: O=C(/C=C/c1c(-c2ccccc2Cl)nc2sc(C(F)(F)F)nn12)NCc1ccc(F)cc1 [Example 0191]
The “Physical data (logP)” value of the first is higher: 4.08 for the first, 3.7 for the second.

First: O=C(/C=C/c1c(-c2ccccc2Cl)nc2sc(C(F)(F)F)nn12)NCCc1ccc(Cl)cc1 [Example 0199]
Second: O=C(/C=C/c1c(-c2ccccc2Cl)nc2sc(C(F)(F)F)nn12)NOCC1CC1 [Example 0211]
The “Physical data (logP)” value of the first is higher: 4.09 for the first, 3.18 for the second.

CCN(CC)C(=O)/C=C/c1c(-c2ccccc2Cl)nc2sc(C(F)(F)F)nn12 [Example 0221] and CCN(CC)C(=O)/C=C/c1c(-c2ccccc2C)nc2sc(C(F)(F)F)nn12 [Example 0292] are within 0.2 log units of each other in “Physical data: log P” value: 3.61 for the first, 3.75 for the second.

O=C(/C=C/c1c(-c2ccccc2Cl)nc2sc(C(F)(F)F)nn12)N1CCCCC1 [Example 0222] and Cc1ccccc1-c1nc2sc(C(F)(F)F)nn2c1/C=C/C(=O)N1CCCCC1 [Example 0293] are within 0.2 log units of each other in “Physical data: log P” value: 3.76 for the first, 3.85 for the second.

Compared with Cc1ccccc1-c1nc2sc(C(F)(F)F)nn2c1/C=C/C(=O)NC(C)(C)C [Example 0231], Cc1ccccc1-c1nc2sc(C(F)(F)F)nn2c1/C=C/C(=O)NC1CC1 [Example 0233] is lower in “Physical data: log P” value: 3.85 for the first, 2.99 for the second.

First: Cc1ccccc1-c1nc2sc(C(F)(F)F)nn2c1/C=C/C(=O)NC1CCC1 [Example 0234]
Second: Cc1ccccc1-c1nc2sc(C(F)(F)F)nn2c1/C=C/C(=O)NC1CCCC1 [Example 0235]
The “Physical data: log P” value of the first is lower: 3.41 for the first, 3.68 for the second.

Going from Cc1ccccc1-c1nc2sc(C(F)(F)F)nn2c1/C=C/C(=O)NC1CCCCC1 [Example 0236] to CCC(NC(=O)C=Cc1c(-c2ccccc2C)nc2sc(C(F)(F)F)nn12)C1CCCCC1 (stereo not shown) [Example 0267], the “Physical data: log P” value rises from 4.03 to 4.92.

Cc1ccccc1-c1nc2sc(C(F)(F)F)nn2c1/C=C/C(=O)NCC1CC1 [Example 0237] and Cc1ccccc1-c1nc2sc(C(F)(F)F)nn2c1/C=C/C(=O)NOCC1CC1 [Example 0282] are within 0.2 log units of each other in “Physical data: log P” value: 3.37 for the first, 3.26 for the second.

Compared with Cc1ccccc1-c1nc2sc(C(F)(F)F)nn2c1/C=C/C(=O)NC(C)c1ccccc1 (stereo not shown) [Example 0260], CCC(NC(=O)C=Cc1c(-c2ccccc2C)nc2sc(C(F)(F)F)nn12)c1ccccc1 (stereo not shown) [Example 0261] is higher in “Physical data: log P” value: 3.94 for the first, 4.18 for the second.

First: Cc1ccccc1-c1nc2sc(C(F)(F)F)nn2c1/C=C/C(=O)NC(C)COc1ccccc1 (stereo not shown) [Example 0265]
Second: Cc1ccccc1-c1nc2sc(C(F)(F)F)nn2c1/C=C/C(=O)NOC(C)c1ccccc1 (stereo not shown) [Example 0284]
The “Physical data: log P” value of the first is higher: 4.18 for the first, 3.81 for the second.

Cc1ccccc1-c1nc2sc(C(F)(F)F)nn2c1/C=C/C(=O)N1CCOCC1 [Example 0294] and O=C(/C=C/c1c(-c2ccc(F)cc2)nc2sc(C(F)(F)F)nn12)N1CCOCC1 [Example 0365] are the same in “Physical data: log P” value: 2.91 for the first, 2.91 for the second.

CC(C)(C)NC(=O)/C=C/c1c(-c2ccc(F)cc2)nc2sc(C(F)(F)F)nn12 [Example 0302] and CC(C)C(C)NC(=O)/C=C/c1c(-c2ccc(F)cc2)nc2sc(C(F)(F)F)nn12 (stereo not shown) [Example 0316] are the same in “Physical data: log P” value: 3.81 for the first, 3.81 for the second.

Compared with O=C(/C=C/c1c(-c2ccc(F)cc2)nc2sc(C(F)(F)F)nn12)NC1CC1 [Example 0304], O=C(/C=C/c1c(-c2ccc(F)cc2)nc2sc(C(F)(F)F)nn12)NC1CCC1 [Example 0305] is higher in “Physical data: log P” value: 2.95 for the first, 3.41 for the second.

Compared with O=C(/C=C/c1c(-c2ccc(F)cc2)nc2sc(C(F)(F)F)nn12)NC1CCCC1 [Example 0306], O=C(/C=C/c1c(-c2ccc(F)cc2)nc2sc(C(F)(F)F)nn12)NC1CCCCC1 [Example 0307] is higher in “Physical data: log P” value: 3.63 for the first, 3.99 for the second.

First: O=C(/C=C/c1c(-c2ccc(F)cc2)nc2sc(C(F)(F)F)nn12)NCC1CC1 [Example 0308]
Second: CCC(C)NC(=O)/C=C/c1c(-c2ccc(F)cc2)nc2sc(C(F)(F)F)nn12 (stereo not shown) [Example 0309]
The “Physical data: log P” value of the first is lower: 3.33 for the first, 3.55 for the second.

Compared with CCCC(C)NC(=O)/C=C/c1c(-c2ccc(F)cc2)nc2sc(C(F)(F)F)nn12 (stereo not shown) [Example 0310], COCC(C)NC(=O)/C=C/c1c(-c2ccc(F)cc2)nc2sc(C(F)(F)F)nn12 (stereo not shown) [Example 0311] is lower in “Physical data: log P” value: 3.9 for the first, 3.07 for the second.

Compared with CC(NC(=O)/C=C/c1c(-c2ccc(F)cc2)nc2sc(C(F)(F)F)nn12)c1ccccc1 (stereo not shown) [Example 0331], CCC(NC(=O)C=Cc1c(-c2ccc(F)cc2)nc2sc(C(F)(F)F)nn12)c1ccccc1 (stereo not shown) [Example 0332] is higher in “Physical data: log P” value: 3.9 for the first, 4.18 for the second.

Going from CC(COc1ccccc1)NC(=O)/C=C/c1c(-c2ccc(F)cc2)nc2sc(C(F)(F)F)nn12 (stereo not shown) [Example 0336] to CC(ONC(=O)/C=C/c1c(-c2ccc(F)cc2)nc2sc(C(F)(F)F)nn12)c1ccccc1 (stereo not shown) [Example 0355], the “Physical data: log P” value falls from 4.13 to 3.81.

First: CCC(NC(=O)C=Cc1c(-c2ccc(F)cc2)nc2sc(C(F)(F)F)nn12)C1CCCCC1 (stereo not shown) [Example 0338]
Second: CCC(CC)NC(=O)/C=C/c1c(-c2ccc(F)cc2)nc2sc(C(F)(F)F)nn12 [Example 0357]
The “Physical data: log P” value of the first is higher: 4.92 for the first, 3.81 for the second.

Going from CC(NC(=O)/C=C/c1c(-c2ccc(F)cc2)nc2sc(C(F)(F)F)nn12)c1ccccn1 (stereo not shown) [Example 0345] to CCN(CC)C(=O)/C=C/c1c(-c2ccc(F)cc2)nc2sc(C(F)(F)F)nn12 [Example 0363], the “Physical data: log P” value rises from 2.45 to 3.72.

Compared with O=C(/C=C/c1c(-c2ccc(F)cc2)nc2sc(C(F)(F)F)nn12)N1CCCCC1 [Example 0364], O=C(/C=C/c1c(-c2cccc(C(F)(F)F)c2)nc2sc(C(F)(F)F)nn12)NC1CCCCC1 [Example 0378] is higher in “Physical data: log P” value: 3.85 for the first, 4.61 for the second.

Compared with CC(C)NC(=O)/C=C/c1c(-c2cccc(C(F)(F)F)c2)nc2sc(C(F)(F)F)nn12 [Example 0371], CCC(C)NC(=O)/C=C/c1c(-c2cccc(C(F)(F)F)c2)nc2sc(C(F)(F)F)nn12 (stereo not shown) [Example 0380] is higher in “Physical data: log P” value: 3.85 for the first, 4.18 for the second.

Compared with CC(C)(C)NC(=O)/C=C/c1c(-c2cccc(C(F)(F)F)c2)nc2sc(C(F)(F)F)nn12 [Example 0373], O=C(/C=C/c1c(-c2cccc(C(F)(F)F)c2)nc2sc(C(F)(F)F)nn12)NC1CC1 [Example 0375] is lower in “Physical data: log P” value: 4.41 for the first, 3.59 for the second.

Going from O=C(/C=C/c1c(-c2cccc(C(F)(F)F)c2)nc2sc(C(F)(F)F)nn12)NC1CCC1 [Example 0376] to O=C(/C=C/c1c(-c2cccc(C(F)(F)F)c2)nc2sc(C(F)(F)F)nn12)NC1CCCC1 [Example 0377], the “Physical data: log P” value rises from 4.03 to 4.27.

First: O=C(/C=C/c1c(-c2cccc(C(F)(F)F)c2)nc2sc(C(F)(F)F)nn12)NCC1CC1 [Example 0379]
Second: CCCC(C)NC(=O)/C=C/c1c(-c2cccc(C(F)(F)F)c2)nc2sc(C(F)(F)F)nn12 (stereo not shown) [Example 0381]
The “Physical data: log P” value of the first is lower: 3.94 for the first, 4.56 for the second.
